Results: article doi:10.1101/2020.06.11.145995v1 (biorxiv, 2020)
Like-named read-outs stand apart in the source and are kept apart here. One block for each compound: values may come before it.

Key:
Assay in all cases: biochemical
[1] = molecular target: ABL1(T315I)-phosphorylated (Homo sapiens, UniProt P00519, T315I)
FLT3(R834Q) = FLT3(R834Q) (Homo sapiens, UniProt P36888, R834Q)
MLCK = MLCK (Homo sapiens, UniProt Q32MK0)
DCAMKL3 = DCAMKL3 (Homo sapiens, UniProt Q9C098)
CSF1R = CSF1R (Homo sapiens, UniProt P07333)
CAMK2G = CAMK2G (Homo sapiens, UniProt Q13555)
IRAK1 = IRAK1 (Homo sapiens, UniProt P51617)
FYN = FYN (Homo sapiens, UniProt P06241)
HIPK3 = HIPK3 (Homo sapiens, UniProt Q9H422)
DDR1 = DDR1 (Homo sapiens, UniProt Q08345)
CAMK1 = CAMK1 (Homo sapiens, UniProt Q14012)
MKNK1 = MKNK1 (Homo sapiens, UniProt Q9BUB5)
MLK2 = MLK2 (Homo sapiens, UniProt Q02779)
FLT1 = FLT1 (Homo sapiens, UniProt P17948)
AURKC = AURKC (Homo sapiens, UniProt Q9UQB9)
LYN = LYN (Homo sapiens, UniProt P07948)
LIMK2 = LIMK2 (Homo sapiens, UniProt P53671)
BRSK1 = BRSK1 (Homo sapiens, UniProt Q8TDC3)
MKNK2 = MKNK2 (Homo sapiens, UniProt Q9HBH9)
IRAK4 = IRAK4 (Homo sapiens, UniProt Q9NWZ3)
CDKL3 = CDKL3 (Homo sapiens, UniProt Q8IVW4)
CDC2L5 = CDC2L5 (Homo sapiens, UniProt Q14004)
MEK3 = MEK3 (Homo sapiens, UniProt P46734)
ABL1-nonphosphorylated = ABL1-nonphosphorylated (Homo sapiens, UniProt P00519)
[2] = molecular target: ABL1(Q252H)-nonphosphorylated (Homo sapiens, UniProt P00519, Q252H)
LTK = LTK (Homo sapiens, UniProt P29376)
DYRK1B = DYRK1B (Homo sapiens, UniProt Q9Y463)
[3] = molecular target: ABL1(Y253F)-phosphorylated (Homo sapiens, UniProt P00519, Y253F)
[4] = molecular target: ABL1(F317L)-phosphorylated (Homo sapiens, UniProt P00519, F317L)
[5] = read-out: CPT-1-70-1 (1uM) % control
[6] = read-out: HYJ-2-002-1 (1uM) % control

Sequence of DYRK1B (Q9Y463 whole entry): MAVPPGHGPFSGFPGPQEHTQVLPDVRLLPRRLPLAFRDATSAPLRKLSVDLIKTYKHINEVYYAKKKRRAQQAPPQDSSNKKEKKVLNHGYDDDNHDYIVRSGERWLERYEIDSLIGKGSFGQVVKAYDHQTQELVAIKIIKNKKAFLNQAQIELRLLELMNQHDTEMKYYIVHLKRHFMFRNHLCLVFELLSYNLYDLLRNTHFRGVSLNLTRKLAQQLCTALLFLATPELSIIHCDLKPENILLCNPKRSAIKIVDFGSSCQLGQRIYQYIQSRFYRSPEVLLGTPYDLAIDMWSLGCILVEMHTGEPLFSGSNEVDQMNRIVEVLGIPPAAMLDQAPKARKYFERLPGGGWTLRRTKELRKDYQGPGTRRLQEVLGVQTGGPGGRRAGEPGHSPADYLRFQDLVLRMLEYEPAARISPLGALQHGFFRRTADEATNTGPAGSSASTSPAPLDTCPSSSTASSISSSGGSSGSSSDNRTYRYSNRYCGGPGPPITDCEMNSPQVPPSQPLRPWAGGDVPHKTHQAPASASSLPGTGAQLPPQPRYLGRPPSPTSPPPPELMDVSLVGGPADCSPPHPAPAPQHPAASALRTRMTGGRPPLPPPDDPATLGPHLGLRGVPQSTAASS
Sequence of AURKC (Q9UQB9 whole entry): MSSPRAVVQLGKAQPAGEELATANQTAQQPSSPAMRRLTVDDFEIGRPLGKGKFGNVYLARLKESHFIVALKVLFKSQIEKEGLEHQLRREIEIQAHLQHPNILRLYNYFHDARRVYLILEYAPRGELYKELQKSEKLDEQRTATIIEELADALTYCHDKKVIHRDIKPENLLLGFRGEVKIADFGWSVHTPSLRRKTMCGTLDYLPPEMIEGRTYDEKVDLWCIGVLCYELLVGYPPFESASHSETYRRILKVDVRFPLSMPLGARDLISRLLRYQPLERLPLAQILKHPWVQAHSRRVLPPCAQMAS
Sequence of CAMK2G (Q13555 whole entry): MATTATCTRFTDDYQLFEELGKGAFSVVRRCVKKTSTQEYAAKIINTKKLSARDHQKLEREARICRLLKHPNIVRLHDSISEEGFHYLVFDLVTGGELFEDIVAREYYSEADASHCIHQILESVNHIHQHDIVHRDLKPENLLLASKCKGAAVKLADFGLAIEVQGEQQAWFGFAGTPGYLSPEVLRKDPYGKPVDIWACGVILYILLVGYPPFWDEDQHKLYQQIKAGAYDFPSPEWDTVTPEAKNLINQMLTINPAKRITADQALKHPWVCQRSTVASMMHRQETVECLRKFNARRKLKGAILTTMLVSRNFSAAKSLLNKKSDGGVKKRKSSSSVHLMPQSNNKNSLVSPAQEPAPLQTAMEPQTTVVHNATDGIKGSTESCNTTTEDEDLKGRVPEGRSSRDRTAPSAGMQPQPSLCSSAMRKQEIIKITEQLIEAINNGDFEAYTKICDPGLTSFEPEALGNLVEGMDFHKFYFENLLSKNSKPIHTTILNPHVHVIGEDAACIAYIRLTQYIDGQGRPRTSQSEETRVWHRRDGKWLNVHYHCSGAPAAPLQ
Sequence of DCAMKL3 (Q9C098 whole entry): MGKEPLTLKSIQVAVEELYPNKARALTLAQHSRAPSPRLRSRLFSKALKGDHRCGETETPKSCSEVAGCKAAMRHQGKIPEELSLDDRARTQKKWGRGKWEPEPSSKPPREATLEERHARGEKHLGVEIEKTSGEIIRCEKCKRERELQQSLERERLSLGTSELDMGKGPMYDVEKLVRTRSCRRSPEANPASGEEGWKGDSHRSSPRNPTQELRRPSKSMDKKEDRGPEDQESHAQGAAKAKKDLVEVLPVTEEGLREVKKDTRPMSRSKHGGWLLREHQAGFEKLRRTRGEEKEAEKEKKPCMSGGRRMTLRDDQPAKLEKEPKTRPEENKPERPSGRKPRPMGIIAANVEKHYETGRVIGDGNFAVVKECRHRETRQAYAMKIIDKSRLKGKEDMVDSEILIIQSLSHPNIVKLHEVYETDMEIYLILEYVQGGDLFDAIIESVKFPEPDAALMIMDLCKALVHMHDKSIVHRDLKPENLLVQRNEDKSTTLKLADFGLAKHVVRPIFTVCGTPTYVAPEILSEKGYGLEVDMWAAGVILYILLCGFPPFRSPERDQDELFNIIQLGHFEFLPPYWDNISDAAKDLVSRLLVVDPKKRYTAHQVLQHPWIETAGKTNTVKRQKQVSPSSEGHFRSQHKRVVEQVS
Sequence of LIMK2 (P53671 whole entry): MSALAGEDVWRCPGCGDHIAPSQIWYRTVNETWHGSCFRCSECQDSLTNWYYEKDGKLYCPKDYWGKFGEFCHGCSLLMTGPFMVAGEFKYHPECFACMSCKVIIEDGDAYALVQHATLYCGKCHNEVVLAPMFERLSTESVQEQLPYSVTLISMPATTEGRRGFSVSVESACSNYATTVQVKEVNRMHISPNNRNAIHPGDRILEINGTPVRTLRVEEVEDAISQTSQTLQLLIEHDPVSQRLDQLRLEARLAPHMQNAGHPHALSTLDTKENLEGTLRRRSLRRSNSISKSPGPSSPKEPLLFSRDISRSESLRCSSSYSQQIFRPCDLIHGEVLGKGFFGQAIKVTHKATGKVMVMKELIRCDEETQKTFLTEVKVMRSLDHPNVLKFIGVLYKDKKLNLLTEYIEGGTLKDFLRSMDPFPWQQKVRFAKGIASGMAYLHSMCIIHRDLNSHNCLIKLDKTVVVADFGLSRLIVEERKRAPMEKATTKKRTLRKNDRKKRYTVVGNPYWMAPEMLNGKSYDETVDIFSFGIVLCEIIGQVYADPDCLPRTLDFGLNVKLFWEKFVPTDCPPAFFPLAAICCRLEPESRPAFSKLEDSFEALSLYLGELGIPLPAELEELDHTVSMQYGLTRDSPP
Sequence of FLT1 (P17948 whole entry): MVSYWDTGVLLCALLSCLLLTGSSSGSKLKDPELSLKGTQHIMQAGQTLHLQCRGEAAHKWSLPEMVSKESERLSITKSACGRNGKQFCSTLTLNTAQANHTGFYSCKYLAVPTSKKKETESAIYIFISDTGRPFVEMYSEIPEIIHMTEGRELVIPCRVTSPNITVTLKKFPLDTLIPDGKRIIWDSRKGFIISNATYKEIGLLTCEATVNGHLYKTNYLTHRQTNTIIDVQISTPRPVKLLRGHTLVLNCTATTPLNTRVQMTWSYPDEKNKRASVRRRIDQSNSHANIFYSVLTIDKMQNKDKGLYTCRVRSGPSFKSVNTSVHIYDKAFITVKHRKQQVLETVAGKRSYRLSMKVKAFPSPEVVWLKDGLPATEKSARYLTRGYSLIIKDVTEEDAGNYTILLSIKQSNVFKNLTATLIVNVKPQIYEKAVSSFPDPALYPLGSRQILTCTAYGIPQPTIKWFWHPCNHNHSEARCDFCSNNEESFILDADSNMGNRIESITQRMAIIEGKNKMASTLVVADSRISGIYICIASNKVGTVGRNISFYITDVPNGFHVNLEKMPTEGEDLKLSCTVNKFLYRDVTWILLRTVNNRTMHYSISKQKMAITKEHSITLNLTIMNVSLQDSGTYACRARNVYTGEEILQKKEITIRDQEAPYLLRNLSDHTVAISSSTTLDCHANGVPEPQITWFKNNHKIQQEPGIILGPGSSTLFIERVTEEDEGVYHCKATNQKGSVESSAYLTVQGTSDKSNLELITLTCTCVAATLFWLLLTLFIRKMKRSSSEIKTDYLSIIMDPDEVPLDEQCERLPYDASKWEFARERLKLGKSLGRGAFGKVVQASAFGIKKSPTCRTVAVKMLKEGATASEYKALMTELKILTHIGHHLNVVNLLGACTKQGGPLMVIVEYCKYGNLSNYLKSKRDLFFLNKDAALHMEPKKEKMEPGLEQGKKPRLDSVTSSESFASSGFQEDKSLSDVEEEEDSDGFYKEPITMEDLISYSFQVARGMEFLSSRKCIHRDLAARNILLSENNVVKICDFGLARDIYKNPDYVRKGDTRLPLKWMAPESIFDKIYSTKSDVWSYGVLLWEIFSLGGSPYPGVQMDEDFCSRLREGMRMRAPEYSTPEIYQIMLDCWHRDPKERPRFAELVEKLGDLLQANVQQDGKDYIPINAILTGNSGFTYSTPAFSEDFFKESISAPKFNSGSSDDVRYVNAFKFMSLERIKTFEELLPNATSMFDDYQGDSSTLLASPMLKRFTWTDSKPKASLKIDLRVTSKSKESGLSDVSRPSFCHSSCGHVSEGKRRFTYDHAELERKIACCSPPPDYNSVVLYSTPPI
Sequence of MLK2 (Q02779 whole entry): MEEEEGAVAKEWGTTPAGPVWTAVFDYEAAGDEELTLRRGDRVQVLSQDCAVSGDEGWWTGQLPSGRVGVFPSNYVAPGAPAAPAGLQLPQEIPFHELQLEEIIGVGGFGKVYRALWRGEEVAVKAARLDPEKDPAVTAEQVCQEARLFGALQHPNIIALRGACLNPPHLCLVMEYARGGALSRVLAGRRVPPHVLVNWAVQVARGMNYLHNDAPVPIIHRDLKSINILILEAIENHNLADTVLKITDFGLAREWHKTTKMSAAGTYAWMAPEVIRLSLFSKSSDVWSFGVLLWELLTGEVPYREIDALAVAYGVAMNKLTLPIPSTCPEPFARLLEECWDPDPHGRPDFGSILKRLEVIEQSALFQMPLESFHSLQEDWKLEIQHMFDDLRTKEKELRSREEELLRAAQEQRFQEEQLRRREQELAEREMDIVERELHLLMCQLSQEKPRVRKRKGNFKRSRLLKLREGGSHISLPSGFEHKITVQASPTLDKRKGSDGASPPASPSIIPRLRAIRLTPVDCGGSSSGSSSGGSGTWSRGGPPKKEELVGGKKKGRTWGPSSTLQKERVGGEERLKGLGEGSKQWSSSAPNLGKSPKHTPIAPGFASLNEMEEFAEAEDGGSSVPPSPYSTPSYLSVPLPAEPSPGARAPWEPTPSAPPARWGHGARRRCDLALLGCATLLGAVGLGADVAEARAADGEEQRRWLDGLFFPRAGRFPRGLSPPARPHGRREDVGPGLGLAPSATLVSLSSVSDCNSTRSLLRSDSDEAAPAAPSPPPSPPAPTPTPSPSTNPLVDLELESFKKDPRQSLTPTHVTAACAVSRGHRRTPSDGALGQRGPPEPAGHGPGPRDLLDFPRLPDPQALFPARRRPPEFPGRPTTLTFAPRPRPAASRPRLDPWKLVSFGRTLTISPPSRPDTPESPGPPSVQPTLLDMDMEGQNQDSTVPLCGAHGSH

SMILES: CN1CCN(c2ccc(Nc3nc(Oc4ccc(NC(=O)CCl)cc4)c4cc[nH]c4n3)cc2)CC1 [CPT1-70-1]
remaining activity at 1 µM [1, 5]: 19%
remaining activity at 1 µM (FLT3(R834Q); [5]): 51%
remaining activity at 1 µM (MLCK; [5]): 100%
remaining activity at 1 µM (DCAMKL3; [5]): 56%
remaining activity at 1 µM (CSF1R; [5]): 12%
remaining activity at 1 µM (CAMK2G; [5]): 100%
remaining activity at 1 µM (IRAK1; [5]): 53%
remaining activity at 1 µM (FYN; [5]): 90%
remaining activity at 1 µM (HIPK3; [5]): 74%
remaining activity at 1 µM (DDR1; [5]): 79%
remaining activity at 1 µM (CAMK1; [5]): 57%
remaining activity at 1 µM (MKNK1; [5]): 100%
remaining activity at 1 µM (MLK2; [5]): 56%
remaining activity at 1 µM (FLT1; [5]): 54%
remaining activity at 1 µM (AURKC; [5]): 51%
remaining activity at 1 µM (LYN; [5]): 49%
remaining activity at 1 µM (LIMK2; [5]): 100%
remaining activity at 1 µM (BRSK1; [5]): 100%
remaining activity at 1 µM (MKNK2; [5]): 100%
remaining activity at 1 µM (IRAK4; [5]): 94%
remaining activity at 1 µM (CDKL3; [5]): 100%
remaining activity at 1 µM (CDC2L5; [5]): 91%
remaining activity at 1 µM (MEK3; [5]): 26%
remaining activity at 1 µM (ABL1-nonphosphorylated; [5]): 25%
remaining activity at 1 µM [2, 5]: 52%
remaining activity at 1 µM (LTK; [5]): 100%
remaining activity at 1 µM (DYRK1B; [5]): 79%
remaining activity at 1 µM [3, 5]: 100%
remaining activity at 1 µM [4, 5]: 99%

remaining activity at 1 µM [1, 6]: 0.75%
remaining activity at 1 µM (FLT3(R834Q); [6]): 44%
remaining activity at 1 µM (MLCK; [6]): 89%
remaining activity at 1 µM (DCAMKL3; [6]): 84%
remaining activity at 1 µM (CSF1R; [6]): 0.45%
remaining activity at 1 µM (CAMK2G; [6]): 100%
remaining activity at 1 µM (IRAK1; [6]): 62%
remaining activity at 1 µM (FYN; [6]): 2.2%
remaining activity at 1 µM (HIPK3; [6]): 55%
remaining activity at 1 µM (DDR1; [6]): 0%
remaining activity at 1 µM (CAMK1; [6]): 80%
remaining activity at 1 µM (MKNK1; [6]): 84%
remaining activity at 1 µM (MLK2; [6]): 93%
remaining activity at 1 µM (FLT1; [6]): 10%
remaining activity at 1 µM (AURKC; [6]): 80%
remaining activity at 1 µM (LYN; [6]): 0.15%
remaining activity at 1 µM (LIMK2; [6]): 32%
remaining activity at 1 µM (BRSK1; [6]): 97%
remaining activity at 1 µM (MKNK2; [6]): 7%
remaining activity at 1 µM (IRAK4; [6]): 94%
remaining activity at 1 µM (CDKL3; [6]): 34%
remaining activity at 1 µM (CDC2L5; [6]): 100%
remaining activity at 1 µM (MEK3; [6]): 100%
remaining activity at 1 µM (ABL1-nonphosphorylated; [6]): 0.05%
remaining activity at 1 µM [2, 6]: 0.05%
remaining activity at 1 µM (LTK; [6]): 89%
remaining activity at 1 µM (DYRK1B; [6]): 76%
remaining activity at 1 µM [3, 6]: 0.7%
remaining activity at 1 µM [4, 6]: 2%
SMILES: CCN1CCN(Cc2ccc(NC(=O)c3ccc(C)c(CCc4cnc5[nH]ccc5c4OC)c3)cc2C(F)(F)F)CC1 [HYJ-2-002-1]
